Test results from patent US9586986B2, “Substituted 7-deazapurine ribonucleosides for therapeutic uses” (Institute of Organic Chemistry and Biochemistry ASCR, v.v.i., priority 2014, dated 2017).
Read-outs that look alike come from different tables or passages of the source.

How the values were obtained:
Type in all cases: cell-based
[1] = tested on: BJ; assay: Cytostatic/cytotoxic MTT assay, BJ fibroblasts; settings: Homo sapiens, 72 h, read-out: MTT, IC50 BJ
Description: (§1) Unless otherwise stated, all cells were purchased from the […] (ATCC). The CCRF-CEM line is derived from T lymphoblastic leukemia, evincing high chemosenzitivity, K562 represent cells from a […] patient sample with bcr-abl translocation, HCT116 is colorectal tumor cell line and its p53 gene knock-down counterpart (HCT116p53−/−, Horizon Discovery, UK) is a model of human cancers with p53 inactivation frequently associated with poor prognosis, A549 cell line is lung adenocarcinoma. The daunorubicin resistant subline of CCRF-CEM cells (CEM-DNR bulk) and paclitaxel resistant subline K562-TAX were selected in our laboratory by cultivation of maternal cell lines in increasing concentrations of daunorubicine or paclitaxel, respectively. The CEM-DNR cells overexpress mrp-1 and mdr-1 genes, while K562-TAX cells overexpress mdr-1 only. Both proteins belong to the family of ABC transporters and are involved in the primary and/or acquired multidrug resistance phenomenon (ref.: Gottesman, M. M.; Fojo, T.; Bates, S. E. Multidrug resistance in cancer: role of ATP-dependent transporters. Nat. Rev. Cancer. 2002, 2, 48-58. (b) Noskova, V.; Dzubak, P.; Kuzmina, G.; Ludkova, A.; Stehlik, D.; Trojanec, R.; Janostakova, A.; Korinkova, G.; Mihal, V.; Hajduch, M. In vitro chemoresistance profile and expression/function of MDR associated proteins in resistant cell lines derived from CCRF-CEM, K562, A549 and MDA MB 231 parental cells. Neoplasma 2002, 49, 418-425). Non-malignant MRC-5 and BJ cells, derived from normal human fibroblasts, were used as controls. The cells were maintained in Nunc/Corning 80 cm^2 plastic tissue culture flasks and cultured in cell culture medium (DMEM/RPMI 1640 with 5 g/L glucose, 2 mM glutamine, 100 U/mL penicillin, 100 µg/mL streptomycin, 10% fetal calf serum, and NaHCO3). Cell suspensions were prepared and diluted according to the particular cell type and the expected target cell density (25,000-30,000 cells/well based on cell growth characteristics). Cells were added by pipette (80 L) into 96-well microtiter plates. Inoculates were allowed a pre-incubation period of 24 h at 37° C. and 5% CO2 for stabilization. Four-fold dilutions, in 20-L aliquots, of the intended test concentration were added to the microtiter plate walls at time zero. All test compound concentrations were examined in duplicate. Incubation of the cells with the test compounds lasted for 72 h at 37° C., in a 5% CO2 atmosphere at 100% humidity. At the end of the incubation period, the cells were assayed using MTT. Aliquots (10 L) of the MTT stock solution (5 mg/ml) were pipetted into each well and incubated for another 1-4 h. After this incubation period the formazan produced was dissolved by addition of 100 µL/well of 10% aq SDS (pH 5.5), followed by a further incubation at 37° C. overnight. The optical density was measured at 540 nm. The IC50 value, the drug concentration inhibiting the cell growth by 50%, was calculated from appropriate dose-response curves.
(§2) In vitro cytotoxic/cytostatic activity final nucleosides 1-5 was initially evaluated against […] cell lines derived from human solid tumors including lung (A549 cells) and colon (HCT116 and HCT116p53−/−) carcinomas, as well as leukemia cell lines (CCRF-CEM, CEM-DNR, K562 and K562-TAX) and, for comparison, non-malignant BJ and MRC-5 fibroblasts. Concentrations inhibiting the cell growth by 50% (IC50) were determined using a quantitative metabolic staining with 3-(4,5-dimethylthiazol-2-yl)-2,5-diphenyltetrazolium bromide (MTT) (ref.: Denizot, F.; Lang, R. Rapid colorimetric assay for cell growth and survival: Modifications to the tetrazolium dye procedure giving improved sensitivity and reliability. J. Immunol. Meth. 1986, 89, 271-277) following a 3-day treatment.

[2] = tested on: K562-TAX; assay: Cytostatic/cytotoxic MTT assay, K562-TAX; settings: Homo sapiens, 72 h, read-out: MTT, IC50 K562-TAX
Description: as §1, §2
(§3) Multidrug resistance is a major therapeutic problem in cancer chemotherapy. […]

[3] = tested on: HeLa S3; assay: XTT cytotoxicity assay, HeLa S3; settings: Homo sapiens, read-out: XTT, IC50 HeLa S3
Description: HL-60, Hela S3 and HepG2 cell lines (ATCC) were grown in RPMI-1640 or DMEM medium supplemented with 10% fetal calf serum, […] of streptomycin, 200 U/mL of penicillin G and 4 mM glutamine in a humidified atmosphere containing 5% CO2 at 37° C. Sensitivity of these cell lines to the synthesized compounds was assessed with the use of XTT cell proliferation kit II (Roche Diagnostics GmbH, Mannheim, Germany) according to the manufacturer's instructions. Briefly, cells were seeded in a 96-well plate at a density of 10,000 cells per well (90 μL). After 24 h, 10 μL of the tested compounds were added to the culture media at desired concentration range and incubated for 72 h. After that 50 μL of the XTT solution was added (1 mg/mL XTT+0.383 mg/mL N-methyl dibenzopyrazine methyl sulfate). The absorbance was recorded at 495 nm following a 2 h-incubation with the dye. IC50 values were determined by non-linear regression method using GraphPad Prism version 5.00 for Windows (GraphPad Software, La Jolla, Calif., USA).
In addition, the anti-proliferative effect was tested against a human T-lymphoblastic leukemia line CCRF-CEM, promyelocytic leukemia HL-60 and cervical carcinoma HeLa S3 growing in liquid suspension. Cell viability was determined following a 3-day incubation using 2,3-bis-(2-methoxy-4-nitro-5-sulfophenyl)-2H-tetrazolium-5-carboxanilide (XTT) assay (ref.: Scudiero, D. A.; Shoemaker, R. H.; Paull, K. D.; Monks, A.; Tierney, S.; Nofziger, T. H.; Currens, M. J.; Seniff, D.; Boyd M. R. Evaluation of a Soluble Tetrazolium/Formazan Assay for Cell Growth and Drug Sensitivity in Culture Using Human and Other Tumor Cell Lines. Cancer Res. 1988, 48, 4827-4833).

[4] = tested on: HCT116; assay: Cytostatic/cytotoxic MTT assay, HCT116; settings: Homo sapiens, read-out: MTT, IC50 HCT116
Description: as §1, §2, §3

[5] = tested on: CEM-DNR-bulk; assay: Cytostatic/cytotoxic MTT assay, CEM-DNR-bulk; settings: Homo sapiens, 72 h, read-out: MTT, IC50 CEM-DNR-bulk
Description: as §1, §2, §3

[6] = tested on: HCT116p53-/-; assay: Cytostatic/cytotoxic MTT assay, HCT116p53-/-; settings: Homo sapiens, read-out: MTT, IC50 HCT116 p53-/-
Description: as §1, §2, §3

[7] = tested on: K562; assay: Cytostatic/cytotoxic MTT assay, K562; settings: Homo sapiens, read-out: MTT, IC50 K562
Description: as §1, §2

Structure (SMILES)	IC50 ([1]; non-malignant fibroblasts) [µM]	IC50 ([2]; paclitaxel resistant subline) [µM]	IC50 ([3]; HeLa S3, 72 h incubation) [µM]	IC50 ([4]; HCT-116, 72 h incubation) [µM]	IC50 ([5]; daunorubicin resistant subline) [µM]	IC50 ([6]; HCT-116, 72 h incubation) [µM]	IC50 ([7]; K562, 72 h incubation) [µM]	IC50 [1] [µM]	IC50 [2] [µM]	IC50 ([3]; HeLa S3, 72 h) [µM]	IC50 ([4]; HCT-116, 72 h) [µM]	IC50 [5] [µM]	IC50 ([6]; HCT-116, 72 h) [µM]	IC50 ([7]; K562, 72 h) [µM]
Cc1ncnc2c1c(-c1cc3ccccc3o1)cn2[C@@H]1O[C@H](CO)[C@@H](O)[C@H]1O [Compound 5f, 5-(Benzofuran-2-yl)-4-methyl-7-(β-D-ribofuranosyl)-7H-pyrrolo[2,3-d]pyrimidine]	93.9	> 20	> 20	> 20	> 20	> 20	19.5	–	–	–	–	–	–	–
COc1ncnc2c1c(-c1ccco1)cn2[C@@H]1O[C@H](CO)[C@@H](O)[C@H]1O [Compound 1a, 5-(Furan-2-yl)-4-methoxy-7-(β-D-ribofuranosyl)-7H-pyrrolo[2,3-d]pyrimidine]	0.43	0.38	1.02	0.04	0.16	0.04	0.06	–	–	–	–	–	–	–
COc1ncnc2c1ccn2[C@@H]1O[C@H](CO)[C@@H](O)[C@H]1O [RC1, reference compound]	> 100	> 20	> 20	> 20	> 20	> 20	> 20	–	–	–	–	–	–	–
CNc1ncnc2c1c(-c1cc3ccccc3o1)cn2[C@@H]1O[C@H](CO)[C@@H](O)[C@H]1O [Compound 3f, 5-(Benzofuran-2-yl)-4-methylamino-7-(β-D-ribofuranosyl)-7H-pyrrolo[2,3-d]pyrimidine]	75.6	> 20	> 20	> 20	> 20	> 20	> 20	–	–	–	–	–	–	–
CSc1ncnc2c1c(-c1ccco1)cn2[C@@H]1O[C@H](CO)[C@@H](O)[C@H]1O [Compound 2a, 5-(Furan-2-yl)-4-methylsulfanyl-7-(β-D-ribofuranosyl)-7H-pyrrolo[2,3-d]pyrimidine]	0.26	0.21	0.54	0.02	0.23	0.01	0.04	–	–	–	–	–	–	–
CSc1ncnc2c1c(-c1ccsc1)cn2[C@@H]1O[C@H](CO)[C@@H](O)[C@H]1O [Compound 2d, 4-Methylsulfanyl-7-(β-D-ribofuranosyl)-5-(thiophen-3-yl)-7H-pyrrolo[2,3-d]pyrimidine]	95.8	> 20	> 20	> 20	> 20	> 20	0.45	–	–	–	–	–	–	–
CN(C)c1ncnc2c1ccn2[C@@H]1O[C@H](CO)[C@@H](O)[C@H]1O [RC4, reference compound]	5.3	0.89	10.6	18.4	2.6	5.09	5.28	–	–	–	–	–	–	–
Cc1ncnc2c1ccn2[C@@H]1O[C@H](CO)[C@@H](O)[C@H]1O [RC5, 4-Methyl-7-(β-D-ribofuranosyl)-7H-pyrrolo[2,3-d]pyrimidine, reference compound]	–	–	–	–	–	–	–	0.07	0.05	0.02	0.03	0.05	0.06	0.01
CNc1ncnc2c1c(-c1ccco1)cn2[C@@H]1O[C@H](CO)[C@@H](O)[C@H]1O [Compound 3a, 5-(Furan-2-yl)-4-methylamino-7-(β-D-ribofuranosyl)-7H-pyrrolo[2,3-d]pyrimidine]	5.04	15.1	5	0.23	> 20	0.44	0.22	–	–	–	–	–	–	–
CN(C)c1ncnc2c1c(-c1ccsc1)cn2[C@@H]1O[C@H](CO)[C@@H](O)[C@H]1O [Compound 4d, 4-Dimethylamino-7-(β-D-ribofuranosyl)-5-(thiophen-3-yl)-7H-pyrrolo[2,3-d]pyrimidine]	> 100	> 20	> 15	> 20	> 20	> 20	0.53	–	–	–	–	–	–	–
Cc1ncnc2c1c(-c1ccco1)cn2[C@@H]1O[C@H](CO)[C@@H](O)[C@H]1O [Compound 5a, 5-(Furan-2-yl)-4-methyl-7-(β-D-ribofuranosyl)-7H-pyrrolo[2,3-d]pyrimidine]	0.07	0.11	1.33	0.04	0.07	0.04	0.04	–	–	–	–	–	–	–
C#Cc1cn([C@@H]2O[C@H](CO)[C@@H](O)[C@H]2O)c2ncnc(NC)c12 [Compound 3g, 5-Ethynyl-4-methylamino-7-(β-D-ribofuranosyl)-7H-pyrrolo[2,3-d]pyrimidine]	86	1.38	> 20	> 20	18.5	> 20	> 20	–	–	–	–	–	–	–
CSc1ncnc2c1ccn2[C@@H]1O[C@H](CO)[C@@H](O)[C@H]1O [RC2, reference compound]	–	–	–	–	–	–	–	> 100	0.1	11.9	> 20	3.61	> 20	> 20
CN(C)c1ncnc2c1c(-c1ccoc1)cn2[C@@H]1O[C@H](CO)[C@@H](O)[C@H]1O [Compound 4b, 4-Dimethylamino-5-(furan-3-yl)-7-(β-D-ribofuranosyl)-7H-pyrrolo[2,3-d]pyrimidine]	99.2	14.9	9.06	> 20	> 20	> 20	1.54	–	–	–	–	–	–	–
